Data published in paper PMC11311821, “Biochemical Characterisation of Sis: A Distinct Thermophilic PETase with Enhanced NanoPET Substrate Hydrolysis and Thermal Stability” (International Journal of Molecular Sciences, 2024).

System: Sis
Experiment: spectrophotometric p-nitrophenol release at […] nm
Assay type: biochemical, metagenome: geothermal site (36 °C, pH 9.8)
Conditions: optimal conditions of pH and temperature (sodium-phosphate pH 7.0, 70 °C)

## CCCC(=O)Oc1ccc([N+](=O)[O-])cc1 [pNP-butyrate]
  Km: 80 ± 10 µM
